Assay results published in patent publication US20020049193A1, “N-linked sulfonamides of heterocyclic thioesters” (GPI NIL HOLDINGS, INC., priority 1996, published 2002).
Read-outs that look alike come from different tables or passages of the source.

How the values were obtained:
FKBP12 = FKBP12 (Homo sapiens, UniProt P62942); assay: Ki test procedure: inhibition of peptidyl-prolyl isomerase (rotamase) activity, chymotrypsin-coupled assay; assay type: biochemical; conditions: apparent Ki
Source text: The inhibition of the prolyl peptidyl cis-trans isomerase activity of FKBP may be measured as an indicator of this affinity.
The compounds of the invention are shown to inhibit peptidyl-prolyl isomerase (rotamase) activity and can be evaluated by known methods described in the literature (Harding, et al., Nature, 1989, 341:758-760; Holt et al. J. Am. Chem. Soc., 115: 9923-9938). The cis-trans isomerization of an alanine-proline bond in a model substrate, N-succinyl-Ala-Ala-Pro-Phe-p-nitroanilide, is monitored spectrophotometrically in a chymotrypsin-coupled assay, which releases para-nitroanilide from the trans form of the substrate. The inhibition of this reaction caused by the addition of different concentrations of inhibitor is determined, and the data is analyzed as a change in first-order rate constant as a function of inhibitor concentration to yield the apparent Ki values.
In a plastic cuvette are added […] of ice cold assay buffer (25 mM HEPES, pH 7.8, 100 mM NaCl), 10 mL of FKBP (2.5 mM in 10 mM Tris-Cl pH 7.5, 100 mM NaCl, 1 mM dithiothreitol), 25 mL of chymotrypsin (50 mg/ml in 1 mM HCl) and […] of test compound at various concentrations in dimethyl sulfoxide. The reaction is initiated by the addition of 5 mL of substrate (succinyl-Ala-Phe-Pro-Phe-para-nitroanilide, 5 mg/mL in 2.35 mM LiCl in trifluoroethanol).
The absorbance at 390 nm versus time is monitored for 90 seconds using a spectrophotometer and the rate constants are determined from the absorbance versus time data files.
The data for these experiments for representative compounds are presented in Tables II(a) and II(b) under the column “Ki”.

[1] = system: chick dorsal root ganglia; assay: Chick dorsal root ganglion cultures and neurite outgrowth; assay type: cell-based; conditions: Gallus gallus, 48 h; read-out: ED50 (the source's name)
Description: Dorsal root ganglia were dissected from chick embryos of ten day gestation. Whole ganglion explants were cultured on thin layer Matrigel-coated 12 well plates with Liebovitz L15 plus high glucose media supplemented with 2 mM glutamine and 10% fetal calf serum, and also containing 10 μM cytosine β-D arabinofuranoside (Ara C) at 37° C. in an environment containing 5% CO2. Twenty-four hours later, the DRGs were treated with various immunophilin ligands. Forty-eight hours after drug treatment, the ganglia were visualized under phase contrast or Hoffman Modulation contrast with a Zeiss Axiovert inverted microscope. Photomicrographs of the explants were made, and neurite outgrowth was quantitated. Neurites longer than the DRG diameter were counted as positive, with total number of neurites quantitated per each experimental condition. Three to four DRGs are cultured per well, and each treatment was performed in duplicate.
The data for these experiments for representative compounds are presented in Table II(c) under the column “ED50”.

[2] = system: TH-positive dopaminergic neurons in the striatum; assay: MPTP model of Parkinson's Disease; assay type: in vivo; conditions: CD1 mice, MPTP 30 mg/kg i.p. 5 days, test compound 4 mg/kg s.c. 10 days, striatum at 18 days
Description: MPTP lesioning of dopaminergic neurons in mice is used as an animal model of Parkinson's Disease. Four week old male CD1 white mice are dosed i.p. with 30 mg/kg of MPTP for 5 days. Test compounds (4 mg/kg), or vehicle, are administered s.c. along with the MPTP for 5 days, as well as for an additional 5 days following cessation of MPTP treatment. At 18 days following MPTP treatment, the animals are sacrificed and the striata dissected and perfusion-fixed.
Immunostaining is performed on saggital and coronal brain sections using anti-tyrosine hydroxylase […] to quantitate survival and recovery of dopaminergic neurons. In animals treated with MPTP and vehicle, a substantial loss of functional dopaminergic terminals is observed as compared to non-lesioned animals. Lesioned animals receiving test compounds show a significant recovery of TH-stained dopaminergic neurons. This model presents quantitation for the recovery of TH-positive dopaminergic neurons in the striatum of animals receiving the compounds of the present invention. Data for representative control and lesioned animals not receiving the test drugs is also presented against the data from the animals receiving the compounds of the present invention in Table III.

Sequence of FKBP12 (P62942 whole entry, species assumed): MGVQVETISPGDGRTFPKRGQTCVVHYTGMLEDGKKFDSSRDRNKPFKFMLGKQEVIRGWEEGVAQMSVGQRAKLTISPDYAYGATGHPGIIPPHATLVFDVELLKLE

COc1ccc(CCCSC(=O)[C@@H]2CCCCN2S(=O)(=O)c2ccc(C)cc2)cc1 (racemic) [Compound 26, 3-(4-Methoxyphenyl)propyl 1-[(4-methylphenyl)sulfonyl]-2-piperidinecarbothioate]
Ki (FKBP12; numerical, read-out: Ki): 659 nM | Ki (FKBP12; ranked potency, read-out: Kl): > 500 nM

COc1ccc(CCCSC(=O)C2CCCCN2S(=O)(=O)Cc2ccccc2)cc1 (racemic) [Compound 27, 3-(4-Methoxyphenyl)propyl 1-(benzylsulfonyl)-2-piperidinecarbothioate]
Ki (FKBP12; numerical, read-out: Ki): 82 nM

COc1ccc(CCCSC(=O)C2CCCCN2S(=O)(=O)c2ccccc2)cc1 (racemic) [Compound 28, 3-(4-Methoxyphenyl)propyl 1-(phenylsulfonyl)-2-piperidinecarbothioate]
Ki (FKBP12; numerical, read-out: Ki): 196 nM | Ki (FKBP12; ranked potency, read-out: Kl): 51 to 200 nM

Cc1ccc(S(=O)(=O)N2CCCCC2C(=O)SCCCc2ccc(C(F)(F)F)cc2)cc1 (racemic) [Compound 29, 3-[4-(Trifluoromethyl)phenyl]propyl 1-[(4-methylphenyl)sulfonyl]-2-piperidinecarbothioate]
Ki (FKBP12; numerical, read-out: Ki): 69 nM | Ki (FKBP12; ranked potency, read-out: Kl): 51 to 200 nM

O=C(SCCc1ccccc1)C1CCCN1S(=O)(=O)c1ccccc1 (stereo not shown) [Compound 1]
EC50 [1]: < 1 nM

O=C(SCCc1ccccc1)C1CCCN1S(=O)(=O)Cc1ccccc1 (stereo not shown) [Compound 2]
EC50 [1]: 1 to 50 nM

Cc1ccc(S(=O)(=O)N2CCCC2C(=O)SCCc2ccccc2)cc1 (stereo not shown) [Compound 3]
EC50 [1]: 1 to 50 nM

COc1ccc(CCCSC(=O)[C@@H]2CCCN2S(=O)(=O)c2ccccc2)cc1 [Compound 4, 3-(4-Methoxyphenyl)propyl (2S)-1-(phenylsulfonyl)-2-pyrrolidinecarbothioate]
% Recovery Tyrosine Hydroxylase [2]: 42% | EC50 [1]: 51 to 200 nM | Ki (FKBP12; numerical, read-out: Ki): 204 nM | Ki (FKBP12; ranked potency, read-out: Kl): 201 to 500 nM

COc1ccc(CCCSC(=O)[C@@H]2CCCN2S(=O)(=O)Cc2ccccc2)cc1 [Compound 5, 3-(4-Methoxyphenyl)propyl (2S)-1-(benzylsulfonyl)-2-pyrrolidinecarbothioate]
EC50 [1]: 1 to 50 nM | Ki (FKBP12; numerical, read-out: Ki): 22 nM | Ki (FKBP12; ranked potency, read-out: Kl): 1 to 50 nM

COc1ccc(CCCSC(=O)[C@@H]2CCCN2S(=O)(=O)c2ccc(C)cc2)cc1 [Compound 6, 3-(4-Methoxyphenyl)propyl (2S)-1-[(4-methylphenyl)sulfonyl]-2-pyrrolidinecarbothioate]
% Recovery Tyrosine Hydroxylase [2]: 37% | EC50 [1]: 51 to 200 nM | Ki (FKBP12; numerical, read-out: Ki): 145 nM | Ki (FKBP12; ranked potency, read-out: Kl): 51 to 200 nM

O=C(SCCC(c1ccccc1)c1ccccc1)C1CCCN1S(=O)(=O)c1ccccc1 (stereo not shown) [Compound 7]
EC50 [1]: 1 to 50 nM

O=C(SCCC(c1ccccc1)c1ccccc1)C1CCCN1S(=O)(=O)Cc1ccccc1 (stereo not shown) [Compound 8]
EC50 [1]: < 1 nM

O=C(SCCCCc1ccccc1)C1CCCCN1S(=O)(=O)c1ccccc1 (stereo not shown) [Compound 10]
EC50 [1]: 1 to 50 nM

O=C(SCCCCc1ccccc1)C1CCCCN1S(=O)(=O)Cc1ccccc1 (stereo not shown) [Compound 11]
EC50 [1]: 1 to 50 nM

Cc1ccc(S(=O)(=O)N2CCCCC2C(=O)SCCCCc2ccccc2)cc1 (stereo not shown) [Compound 12]
EC50 [1]: 1 to 50 nM

COc1cc(S(=O)(=O)N2CCCCC2C(=O)SCCCCc2ccccc2)cc(OC)c1OC (stereo not shown) [Compound 13]
EC50 [1]: < 1 nM

O=C(SCCCCc1ccccc1)C1CCCCN1S(=O)(=O)C1CCCCC1 (stereo not shown) [Compound 14]
EC50 [1]: 1 to 50 nM

O=C(SC(CCCc1ccccc1)CCCc1ccccc1)C1CCCCN1S(=O)(=O)c1ccccc1 (stereo not shown) [Compound 15]
EC50 [1]: < 1 nM

O=C(SC(CCCc1ccccc1)CCCc1ccccc1)C1CCCCN1S(=O)(=O)Cc1ccccc1 (stereo not shown) [Compound 16]
EC50 [1]: 51 to 200 nM

CCc1ccc(S(=O)(=O)N2CCC[C@H]2C(=O)SCCc2ccccc2)cc1 [Compound 21, Phenethyl (2S)-1-[(4-ethylphenyl)sulfonyl]-2-pyrrolidinecarbothioate]
Ki (FKBP12; numerical, read-out: Ki): 730 nM | Ki (FKBP12; ranked potency, read-out: Kl): > 500 nM

O=C(SCCCc1ccccc1)[C@@H]1CCCN1S(=O)(=O)Cc1ccccc1 [Compound 23, 3-Phenylpropyl (2S)-1-(benzylsulfonyl)-2-pyrrolidinecarbothioate]
% Recovery Tyrosine Hydroxylase [2]: 80% | Ki (FKBP12; ranked potency, read-out: Kl): 51 to 200 nM

O=C(SCCCc1cccc2ccccc12)[C@@H]1CCCN1S(=O)(=O)Cc1ccccc1 [Compound 24, 3-(1-Naphthyl)propyl (2S)-1-(benzylsulfonyl)-2-pyrrolidinecarbothioate]
% Recovery Tyrosine Hydroxylase [2]: 40% | Ki (FKBP12; numerical, read-out: Ki): 671 nM | Ki (FKBP12; ranked potency, read-out: Kl): > 500 nM
